Assay results from patent US12516356B2, “Process for the detoxification of lignocellulosic hydrolysate and its use in synthesizing xylitol” (COUNCIL OF SCIENTIFIC AND INDUSTRIAL RESEARCH, priority 2020, dated 2026).

System: HepG2 cell lines
Assay: cytotoxicity studies on HepG2 cell lines
Type: cell-based
Conditions: xylitol crystals recovered from fermentation broth

OC[C@@H](O)[C@H](O)[C@@H](O)CO [Xylitol crystals, xylitol]
toxic effect on HepG2 cell lines (cytotoxicity studies): no toxic effect
